Measured values published in PubChem BioAssay (NCI).
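Cells were grown in 96-well plates and exposed to each compound for 48 hours at five concentrations; endpoints were interpolated linearly between bracketing concentrations, or set to the highest concentration if not reached. TGI: concentration producing complete growth inhibition.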

Experiments:
Test in all cases: DTP human tumour cell line panel, 48 h
EKVX NSCLC = tested on: EKVX NSCLC
SR leukemia = tested on: SR leukemia
NCI-H460 lung = tested on: NCI-H460 lung
CAKI-1 renal = tested on: CAKI-1 renal
HCC-2998 colon = tested on: HCC-2998 colon
TK-10 renal = tested on: TK-10 renal
BT-549 breast = tested on: BT-549 breast
DU-145 prostate = tested on: DU-145 prostate
NCI-H23 lung = tested on: NCI-H23 lung
NCI-H226 lung = tested on: NCI-H226 lung
MDA-N = tested on: MDA-N
RPMI-8226 leukemia = tested on: RPMI-8226 leukemia
786-0 renal = tested on: 786-0 renal
K-562 leukemia = tested on: K-562 leukemia
UACC-62 melanoma = tested on: UACC-62 melanoma
OVCAR-3 ovarian = tested on: OVCAR-3 ovarian
MCF7 breast = tested on: MCF7 breast
HOP-92 NSCLC = tested on: HOP-92 NSCLC
COLO 205 colon = tested on: COLO 205 colon
RXF 393 renal = tested on: RXF 393 renal
SK-MEL-2 melanoma = tested on: SK-MEL-2 melanoma
U251 CNS = tested on: U251 CNS
SW-620 colon = tested on: SW-620 colon
A549 NSCLC = tested on: A549 NSCLC
SNB-19 CNS = tested on: SNB-19 CNS
MOLT-4 leukemia = tested on: MOLT-4 leukemia
SK-MEL-5 melanoma = tested on: SK-MEL-5 melanoma
M14 melanoma = tested on: M14 melanoma
PC-3 prostate = tested on: PC-3 prostate
OVCAR-8 ovarian = tested on: OVCAR-8 ovarian
SK-MEL-28 melanoma = tested on: SK-MEL-28 melanoma
UACC-257 melanoma = tested on: UACC-257 melanoma
HCT-15 colon = tested on: HCT-15 colon
SN12C renal = tested on: SN12C renal
CCRF-CEM leukemia = tested on: CCRF-CEM leukemia
MALME-3M melanoma = tested on: MALME-3M melanoma
HCT-116 colon = tested on: HCT-116 colon
NCI/ADR-RES ovarian = tested on: NCI/ADR-RES ovarian
HL-60(TB) leukemia = tested on: HL-60(TB) leukemia
HT29 colon = tested on: HT29 colon
IGROV1 ovarian = tested on: IGROV1 ovarian
SF-295 CNS = tested on: SF-295 CNS
UO-31 renal = tested on: UO-31 renal
OVCAR-4 ovarian = tested on: OVCAR-4 ovarian
SF-268 CNS = tested on: SF-268 CNS
HOP-62 NSCLC = tested on: HOP-62 NSCLC
NCI-H522 lung = tested on: NCI-H522 lung
SK-OV-3 ovarian = tested on: SK-OV-3 ovarian
SNB-75 CNS = tested on: SNB-75 CNS
ACHN renal = tested on: ACHN renal
OVCAR-5 ovarian = tested on: OVCAR-5 ovarian
SF-539 CNS = tested on: SF-539 CNS
MDA-MB-231 breast = tested on: MDA-MB-231 breast
A498 renal = tested on: A498 renal
LOX IMVI melanoma = tested on: LOX IMVI melanoma
HS 578T breast = tested on: HS 578T breast
KM12 colon = tested on: KM12 colon
MDA-MB-435 = tested on: MDA-MB-435

SMILES: CN(C)CCCNC(=O)c1c(-c2cccnc2)cnc2ccccc12
- TGI (EKVX NSCLC): > 100 µM
- TGI (SR leukemia): > 100 µM
- TGI (NCI-H460 lung): > 100 µM
- TGI (CAKI-1 renal): > 100 µM
- TGI (HCC-2998 colon): > 100 µM
- TGI (TK-10 renal): > 100 µM
- TGI (BT-549 breast): > 100 µM
- TGI (DU-145 prostate): > 100 µM
- TGI (NCI-H23 lung): > 100 µM
- TGI (NCI-H226 lung): > 100 µM
- TGI (MDA-N): > 100 µM
- TGI (RPMI-8226 leukemia): > 100 µM
- TGI (786-0 renal): > 100 µM
- TGI (K-562 leukemia): > 100 µM
- TGI (UACC-62 melanoma): > 100 µM
- TGI (OVCAR-3 ovarian): > 100 µM
- TGI (MCF7 breast): > 100 µM
- TGI (HOP-92 NSCLC): > 100 µM
- TGI (COLO 205 colon): > 100 µM
- TGI (RXF 393 renal): > 100 µM
- TGI (SK-MEL-2 melanoma): > 100 µM
- TGI (U251 CNS): > 100 µM
- TGI (SW-620 colon): > 100 µM
- TGI (A549 NSCLC): > 100 µM
- TGI (SNB-19 CNS): > 100 µM
- TGI (MOLT-4 leukemia): > 100 µM
- TGI (SK-MEL-5 melanoma): > 100 µM
- TGI (M14 melanoma): > 100 µM
- TGI (PC-3 prostate): > 100 µM
- TGI (OVCAR-8 ovarian): > 100 µM
- TGI (SK-MEL-28 melanoma): > 100 µM
- TGI (UACC-257 melanoma): > 100 µM
- TGI (HCT-15 colon): > 100 µM
- TGI (SN12C renal): > 100 µM
- TGI (CCRF-CEM leukemia): > 100 µM
- TGI (MALME-3M melanoma): > 100 µM
- TGI (HCT-116 colon): > 100 µM
- TGI (NCI/ADR-RES ovarian): > 100 µM
- TGI (HL-60(TB) leukemia): > 100 µM
- TGI (HT29 colon): > 100 µM
- TGI (IGROV1 ovarian): > 100 µM
- TGI (SF-295 CNS): > 100 µM
- TGI (UO-31 renal): > 100 µM
- TGI (OVCAR-4 ovarian): > 100 µM
- TGI (SF-268 CNS): > 100 µM
- TGI (HOP-62 NSCLC): > 100 µM
- TGI (NCI-H522 lung): > 100 µM
- TGI (SK-OV-3 ovarian): > 100 µM
- TGI (SNB-75 CNS): > 100 µM
- TGI (ACHN renal): > 100 µM
- TGI (OVCAR-5 ovarian): > 100 µM
- TGI (SF-539 CNS): > 100 µM

SMILES: O=C(c1cc(Cl)ccc1Cl)N1CCN(c2ccc(Cl)c(Cl)c2)CC1
- TGI (EKVX NSCLC): > 100 µM
- TGI (SR leukemia): > 100 µM
- TGI (NCI-H460 lung): 36.1 µM
- TGI (CAKI-1 renal): > 100 µM
- TGI (MDA-MB-231 breast): > 100 µM
- TGI (HCC-2998 colon): > 100 µM
- TGI (TK-10 renal): > 100 µM
- TGI (BT-549 breast): 80.8 µM
- TGI (DU-145 prostate): > 100 µM
- TGI (NCI-H23 lung): > 100 µM
- TGI (NCI-H226 lung): > 100 µM
- TGI (MDA-N): 96.2 µM
- TGI (RPMI-8226 leukemia): > 100 µM
- TGI (786-0 renal): 48.5 µM
- TGI (A498 renal): 44.1 µM
- TGI (K-562 leukemia): 85.4 µM
- TGI (LOX IMVI melanoma): 84.1 µM
- TGI (OVCAR-3 ovarian): > 100 µM
- TGI (MCF7 breast): 72 µM
- TGI (HOP-92 NSCLC): > 100 µM
- TGI (RXF 393 renal): 54.1 µM
- TGI (U251 CNS): > 100 µM
- TGI (SW-620 colon): > 100 µM
- TGI (A549 NSCLC): > 100 µM
- TGI (MOLT-4 leukemia): 54.3 µM
- TGI (SK-MEL-5 melanoma): 30.3 µM
- TGI (PC-3 prostate): 97.8 µM
- TGI (OVCAR-8 ovarian): 45.5 µM
- TGI (SK-MEL-28 melanoma): > 100 µM
- TGI (UACC-257 melanoma): 83.9 µM
- TGI (HCT-15 colon): > 100 µM
- TGI (SN12C renal): > 100 µM
- TGI (HS 578T breast): > 100 µM
- TGI (CCRF-CEM leukemia): > 100 µM
- TGI (MALME-3M melanoma): > 100 µM
- TGI (HCT-116 colon): > 100 µM
- TGI (HL-60(TB) leukemia): > 100 µM
- TGI (HT29 colon): 83.9 µM
- TGI (IGROV1 ovarian): > 100 µM
- TGI (SF-295 CNS): > 100 µM
- TGI (UO-31 renal): 33.8 µM
- TGI (OVCAR-4 ovarian): > 100 µM
- TGI (SF-268 CNS): > 100 µM
- TGI (HOP-62 NSCLC): > 100 µM
- TGI (NCI-H522 lung): 52.6 µM
- TGI (SNB-75 CNS): > 100 µM
- TGI (ACHN renal): > 100 µM
- TGI (OVCAR-5 ovarian): > 100 µM
- TGI (SF-539 CNS): 76.4 µM
- TGI (KM12 colon): 51.9 µM

SMILES: CC(C)CC(NC(=O)C(CSc1ccc([N+](=O)[O-])cc1)Cc1ccccc1)C(=O)Nc1ccccc1 (stereo not given)
- TGI (EKVX NSCLC): > 100 µM
- TGI (SR leukemia): > 100 µM
- TGI (NCI-H460 lung): > 100 µM
- TGI (CAKI-1 renal): > 100 µM
- TGI (MDA-MB-231 breast): > 100 µM
- TGI (HCC-2998 colon): > 100 µM
- TGI (TK-10 renal): > 100 µM
- TGI (BT-549 breast): 59.5 µM
- TGI (DU-145 prostate): > 100 µM
- TGI (NCI-H23 lung): > 100 µM
- TGI (MDA-N): > 100 µM
- TGI (RPMI-8226 leukemia): > 100 µM
- TGI (786-0 renal): > 100 µM
- TGI (A498 renal): > 100 µM
- TGI (K-562 leukemia): > 100 µM
- TGI (MDA-MB-435): > 100 µM
- TGI (LOX IMVI melanoma): > 100 µM
- TGI (UACC-62 melanoma): > 100 µM
- TGI (OVCAR-3 ovarian): > 100 µM
- TGI (MCF7 breast): > 100 µM
- TGI (HOP-92 NSCLC): > 100 µM
- TGI (COLO 205 colon): > 100 µM
- TGI (RXF 393 renal): > 100 µM
- TGI (SK-MEL-2 melanoma): > 100 µM
- TGI (U251 CNS): > 100 µM
- TGI (SW-620 colon): > 100 µM
- TGI (A549 NSCLC): > 100 µM
- TGI (SNB-19 CNS): > 100 µM
- TGI (MOLT-4 leukemia): > 100 µM
- TGI (SK-MEL-5 melanoma): > 100 µM
- TGI (M14 melanoma): > 100 µM
- TGI (PC-3 prostate): > 100 µM
- TGI (OVCAR-8 ovarian): > 100 µM
- TGI (SK-MEL-28 melanoma): > 100 µM
- TGI (UACC-257 melanoma): > 100 µM
- TGI (HCT-15 colon): > 100 µM
- TGI (SN12C renal): > 100 µM
- TGI (CCRF-CEM leukemia): > 100 µM
- TGI (MALME-3M melanoma): 80.5 µM
- TGI (HCT-116 colon): > 100 µM
- TGI (NCI/ADR-RES ovarian): > 100 µM
- TGI (HL-60(TB) leukemia): > 100 µM
- TGI (IGROV1 ovarian): > 100 µM
- TGI (SF-295 CNS): > 100 µM
- TGI (UO-31 renal): > 100 µM
- TGI (OVCAR-4 ovarian): > 100 µM
- TGI (NCI-H522 lung): > 100 µM
- TGI (SK-OV-3 ovarian): > 100 µM
- TGI (SNB-75 CNS): 65.1 µM
- TGI (ACHN renal): > 100 µM
- TGI (OVCAR-5 ovarian): > 100 µM
- TGI (SF-539 CNS): > 100 µM
- TGI (KM12 colon): > 100 µM
